Reference: US8367716B2 (priority 2003, dated 2013)

What was measured:
[1] = tested on: CD-1 mice; assay: Lethality in mice after oral c-di-GMP; assay type: in vivo; settings: 50 μL of 200 μM, orally, examined 24 h after treatment
Experimental: Safety and toxicity assays. For HeLa cell toxicity studies, various concentrations (0-, 25-, 50-, 100-, 200- and 400 μM) of c-di-GMP were tested in separate wells of chamber slides containing HeLa cells prepared as described above in complete media (in the absence of bacteria). HeLa cell morphology was examined microscopically after 12-, 24- and 48 h incubation. The potential lethality of c-di-GMP administered to mice was also examined. In these studies, adult female CD-1 mice and 5 day old infant mice were inoculated orally with 50 μL of 200 μM c-di-GMP and examined 24 h after c-di-GMP treatment.

[2] = tested on: S. aureus DK825; assay: Coagulase production (bound or free); assay type: cell-based, Staphylococcus aureus
[3] = tested on: Salmonela enteritidis; assay: Biofilm formation in Salmonela enteritidis; assay type: cell-based
[4] = tested on: S. aureus DK825; assay: Effect on 24 h pre-formed biofilms; assay type: cell-based, Staphylococcus aureus; settings: 200 μM added to 24 h pre-formed biofilm, further 24 h
Experimental: Effect of c-di-GMP on S. aureus pre-formed biofilms. S. aureus DK825 was subcultured from glycerol stocks onto blood agar plate and incubated at 37° C. statically. A single colony was inoculated into 5 ml TSB broth (containing 0.25% glucose) and incubated at 37° C. overnight with shaking at 250 rpm until the culture reached OD660˜3.0. Following incubation the culture was diluted to 1:250 with fresh TSB broth and a 200 μl of the diluted culture was transferred into each well of microtitre plate and the plate containing wells with S. aureus cultures was incubated statically at 37° C. for 24 h. After 24 h, an appropriate volume of c-di-GMP was added to give a final concentration of 200 μM and represented the “treated” sample. As an “untreated” control, an identical volume of 0.9% NaCl was added to independent wells. The plates were then incubated statically at 37° C. for an additional 24 h. Following incubation the culture was discarded and microtitre plate was washed twice with 1X PBS. An equal volume (260 μl) of 1X PBS was added to each well for washing. The plates were then kept for drying on paper towel ˜30 min. A 260 μl of 0.1% crystal violet was added to each well to stain the cells in the biofilm and the plates were incubated at room temperature for 30 min. […] To quantitatively assay the amount of biofilm, the OD570 was measured by a spectrophotometer (SpectraMAX 250, Molecular Devices). […]

[5] = 0.2 N NaOH, ~pH 13.5, 37° C. for 24 h; Ross et al.; cited from earlier work
[6] = assay type: physicochemical
Experimental: c-di-GMP, CGMP and 5′-GMP nucleotides used. c-di-GMP used in the studies in this example was biochemically synthesized in pure form using a recently described novel synthesis method that produces a pure and high yielding preparation of c-di-GMP diammonium salt (FIG. 5A) (Hayakawa et al., 2003). Before use, the purity and stability of lyophilized c-di-GMP was determined by first resuspending the molecule in 0.9% NaCl creating a 2 mM solution then confirmed by HPLC analysis and ESI-TOF MS spectrometry. The cGMP (guanosine 3′, 5′-cyclic monophosphate, Sigma #G7504) and 5′-GMP (guanosine 5′-monophosphate, TCI, Tokyo Kasei Kogyo Co.) nucleotides were also used. Unless otherwise stated, a 4 mM stock solution of each nucleotide in 0.9% NaCl was prepared and stored at 4° C. until needed.
c-di-GMP stability tests. Although the term c-di-GMP is used here, c-di-GMP diammonium salt (and not the free diphosphoric acid) was used for these stability tests. (i) In boiling water: A 2 mM solution of c-di-GMP in water was prepared by dissolving 2.42 mg (3.3 μmol) of c-di-GMP in 1.65 mL of ion-exchanged/ion-free water (prepared by passing distilled water through ion-exchange resins). This solution was heated at 100° C. for 10 min and then concentrated under reduced pressure. The resulting residual was subjected to the HPLC analysis under conditions shown below. (ii) In pH 3 solution: From the 2 mM c-di-GMP aqueous solution described above, 500 μl (containing […] of c-di-GMP) was dissolved in 20 mL of 1 mM HCl to produce a solution with pH 3 (confirmed by pH meter). The resulting solution was stirred at room temperature for 1 h and then neutralized by the addition of 200 mL of a 0.1 mM NaOH. Water was evaporated under reduced pressure and the resulting residue was subjected to HPLC analysis. (iii) In pH 10 solution: From the 2 mM c-di-GMP aqueous solution described above, 500 μl (containing […] of c-di-GMP) was dissolved in 200 mL of a 0.1 mM NaOH aqueous solution to produce a solution with pH 10 (confirmed by pH meter). The resulting solution was stirred at room temperature for 1 h. The reaction was quenched by addition of 20 mL of a 1 mM HCl. Concentration of the resulting neutral solution under reduced pressure gave a residual material that was subjected to the HPLC analysis. The HPLC analysis was performed on a Waters 2695 Separation Module with a Waters 2996 Photodiode Array Detector under the following conditions. Column: Nacalai Tesque COSMOSIL 5C18-AR-II column (4.6 mm (diameter)×250 mm (length)); detection: 254 nm of UV ray; temperature: 40° C.; eluent: A=0.9% NaCl (aq), B=a 20:80 mixture of water:acetonitrile; flow rate:1 mL/min; 0-10 min: A 100%; 10-60 min: linear gradient from A100%/B 0% to A 40% to B 60%.

In the case of `Nc1nc2c(ncn2C2OC3COP(=O)(O)OC4C(COP(=O)(O)OC3C2O)OC(n2cnc3c(=O)[nH]c(N)nc32)C4O)c(=O)[nH]1` (stereo not drawn) [c-di-GMP, 3′,5′-cyclic diguanylic acid], the lethality [1] is reported as “no lethal effects were observed”, the “coagulase production treated vs untreated” value [2] is reported as “no difference” and the “effect on biofilm formation” value [3] is reported as “induce or enhance biofilm formation”. The “reduction of further biofilm development” value [4] was roughly 75%, the “stability in relatively strong alkali (cellulose activating activity)” value [5] was “labile” and the solubility [6] was “soluble”. The “stability in 100 mM ammonium acetate buffer” value [6] was “stable”, the “stability in 100 mM phosphate buffer” value [6] was “stable” and the “stability in 0.9% NaCl solution (monomeric structure)” value [6] was “very stable”. The “stability in physiological saline” value [6] was “stable”, the “stability of 2 mM stock solution in water” value [6] was “formation of an aggregated product” and the “stability of neat (lyophilized) form on storage” value [6] was “formed aggregate molecules”.
